Measured values reported in BigSolDB 2.1.

Cc1cccc(C(=O)O)c1N
solubility (mole fraction)
Conditions | 278.15 K | 283.15 K | 288.15 K | 293.15 K | 298.15 K | 303.15 K | 308.15 K | 313.15 K | 318.15 K
in 1,4-dioxane | – | – | 0.108 | 0.117 | 0.127 | 0.137 | 0.148 | 0.159 | 0.171
in 2-butanone | 0.0646 | 0.0721 | 0.0792 | 0.0872 | 0.0953 | 0.104 | 0.114 | 0.124 | 0.134
in acetone | 0.0745 | 0.0829 | 0.0918 | 0.101 | 0.111 | 0.121 | 0.132 | 0.143 | 0.154
in acetonitrile | 0.0227 | 0.0275 | 0.0329 | 0.039 | 0.0461 | 0.054 | 0.0628 | 0.0727 | 0.0834
in cyclohexane | – | 8.89e-05 | 0.000115 | 0.000153 | 0.000204 | 0.00027 | 0.00035 | 0.000454 | 0.000578
in ethanol | 0.0176 | 0.0208 | 0.0244 | 0.0286 | 0.0333 | 0.0385 | 0.0444 | 0.0509 | 0.0582
in ethyl acetate | 0.0294 | 0.0345 | 0.0405 | 0.0469 | 0.054 | 0.0619 | 0.0704 | 0.0803 | 0.0907
in isopropanol | 0.00876 | 0.0109 | 0.0138 | 0.017 | 0.0208 | 0.0253 | 0.0303 | 0.036 | 0.0427
in methanol | 0.02 | 0.0235 | 0.0273 | 0.0317 | 0.0367 | 0.0423 | 0.0483 | 0.055 | 0.0624
in n-butanol | 0.0117 | 0.0144 | 0.0176 | 0.0212 | 0.0254 | 0.0302 | 0.0357 | 0.0422 | 0.0498
in n-propanol | 0.0151 | 0.0178 | 0.0212 | 0.0251 | 0.0293 | 0.0344 | 0.04 | 0.046 | 0.0532
in toluene | 0.0011 | 0.00145 | 0.00184 | 0.00235 | 0.00298 | 0.00382 | 0.0049 | 0.00619 | 0.00797
